Assay results from US6548284B1, “Membrane-bound metalloprotease and soluble secreted form thereof” (JCR Pharmaceuticals Co., Ltd., priority 2000, dated 2003).
“Also recorded” adds a separate entry of the source. Ends that are not written are not given here.

T1: soluble form of SEP (Mus musculus, UniProt Q9JLI3)
T1 construct: partially purified the soluble form of SEP from the conditioned medium of CHO/SEP cells; made in house; host or cells: CHO-K1 cells, transient transfection; conditioned medium partially purified on a wheat germ lectin column
T1 sequence (Q9JLI3 63-765 limits assumed): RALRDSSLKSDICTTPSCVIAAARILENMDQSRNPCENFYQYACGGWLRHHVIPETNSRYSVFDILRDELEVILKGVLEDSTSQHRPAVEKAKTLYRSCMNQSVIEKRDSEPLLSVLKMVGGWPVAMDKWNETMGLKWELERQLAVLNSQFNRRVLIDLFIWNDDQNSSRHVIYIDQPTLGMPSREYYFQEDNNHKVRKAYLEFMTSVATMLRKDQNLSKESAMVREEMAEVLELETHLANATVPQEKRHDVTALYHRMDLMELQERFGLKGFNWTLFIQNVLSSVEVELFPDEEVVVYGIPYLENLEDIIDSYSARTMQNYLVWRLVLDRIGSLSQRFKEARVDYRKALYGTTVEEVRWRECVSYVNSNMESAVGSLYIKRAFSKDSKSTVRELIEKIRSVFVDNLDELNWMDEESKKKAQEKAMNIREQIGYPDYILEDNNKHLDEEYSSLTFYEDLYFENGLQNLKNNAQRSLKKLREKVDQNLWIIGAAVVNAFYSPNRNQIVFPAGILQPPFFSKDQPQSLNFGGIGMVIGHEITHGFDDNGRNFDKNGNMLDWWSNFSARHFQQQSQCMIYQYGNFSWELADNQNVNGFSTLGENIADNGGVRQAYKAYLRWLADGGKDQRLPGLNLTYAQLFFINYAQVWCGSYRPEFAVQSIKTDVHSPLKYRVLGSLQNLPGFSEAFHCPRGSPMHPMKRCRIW

T2: substance P, P20366
T2 chain: RPKPQQFFGLM

T3: synthetic human ET-1 (1-21), P05305
T3 chain: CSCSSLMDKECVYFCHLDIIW

T4: synthetic human big ET-1 (1-38), P05305
T4 chain: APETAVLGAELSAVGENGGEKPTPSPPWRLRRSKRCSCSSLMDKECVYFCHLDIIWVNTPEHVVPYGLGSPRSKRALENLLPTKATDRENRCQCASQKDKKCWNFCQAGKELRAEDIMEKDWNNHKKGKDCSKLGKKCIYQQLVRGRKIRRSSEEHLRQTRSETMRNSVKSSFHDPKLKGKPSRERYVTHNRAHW


How the values were obtained:
soluble form of SEP [1] = target: T1, soluble form of SEP; assay: Inhibition of ET-1 degrading activity of recombinant soluble SEP; type: biochemical; conditions: for SEP activity: Inhibitor 100 μM, SEP partially purified from conditioned medium of CHO/SEP cells, no inhibitor = 100, unit assumed; for inhibition of SEP activity (in words) / IC50: soluble form of SEP; for inhibition of SEP activity (in words): in vitro; for IC50: ET-1 degrading activity, dose-dependent, read-out: apparent IC50, inhibition of SEP activity
Method: (§1) Double transfection of prepro-ET-1and ECE-1a, SEP, or SEP^Δ was performed using LipofectAMINE (Life Technologies, Inc.). Twelve hours after transfection, cells were refed with fresh medium. […] For in vitro enzymological charactenization, an SEP expression construct was transiently transfected into CHO-K1 cells. The medium was conditioned for 48 h in CHO-SFM II (Life Technologies, Inc.) and was subjected to a wheat germ lectin column (1×1 ml HiTrap wheat germ lectin; Amersham Pharmacia Biotech) equilibrated with 20 mM Tris-Cl (pH 7.4) and 0.5M NaCl. The column was washed and eluted with the same buffer containing 0.5M N-acetylglucosamine. The active fraction was subsequently subjected to a Centriprep concentrator (Amicon).
(§2) Reaction mixtures for enzyme assay (100 μl) contained 0.1 M MES-NaOH(pH 7.4), 0.5 μM peptide, and an enzyme fraction. For some experiments, the reactions were preincubated at 37° C. with various protease inhibitors for 15 min prior to the addition of the peptide. The reactions were incubated at 37° C. for 1-12 h in siliconized 0.5-ml microcentrifuge tubes. The enzyme reaction was terminated by adding 1 μl of 10 mM EDTA. The mixture was then injected into a C18 reverse-phase high pressure liquid chromatography (HPLC) column (μRPC C2/C18, ST4.6/100; Amersham Pharmacia Biotech) that was equilibrated with 10% (v/v) acetonitrile and 0.1% (v/v) trifluoroacetic acid. The column was eluted at a flow rate of 1 ml/min with a 10-80% linear gradient of acetonitrile and 0.1% trifluoroacetic acid over 43 min, followed by a 100% acetonitrile for an additional 3 min. Peptides were detected by absorbance at 220 nm.
The present inventors next assessed the enzymological properties of cloned SEP by using its ET-1 degrading activity.

soluble form of SEP [2] = target: T1, soluble form of SEP; assay: SEP-catalyzed hydrolysis of bioactive peptides monitored by HPLC; type: biochemical; conditions: by recombinant soluble SEP, substrate peak area vs control
Method: as §1, with “CHO-K1 cells were cultured [Emoto, N. et al., J. Biol. Chem., 274:1509-1518(1999)]. Double” for “Double”
as §2
Previously, the present inventors have shown that ECE-1 cleaves the Trp^21-Val^22 bond of big ET-1 (1-38) to produce mature ET-1(1-21) and the C-terminal half of big ET-1(22-38) without further cleaving other parts of big ET-1 or ET-1 [Xu, D. et al., Cell, 78:473-485(1994)]. To examine the cleavage site(s) of big ET-1 and mature ET-1 by recombinant SEP in an […] assay, the present inventors partially purified the soluble form of SEP from the conditioned medium of CHO/SEP cells. The present inventors then incubated relatively large amounts of big ET-1 (10 μM) and ET-1 (1.5 μM) with partially purified SEP for a prolonged period of time (12 h) while directly monitoring the cleavage by reverse-phase HPLC. Product peaks were collected, and the peptides were identified by mass spectrometry. Big ET-1 (1-38) was hydrolyzed to a significant degree (42%) by the soluble form of SEP, and HPLC resolved at least four distinct product peaks (FIG. 7B). Two peptides products (FIG. 7C, peaks 1 and 4) were co-eluted with the standards of big ET-1 (22-38) and mature ET-1 (1-21), respectively. Analysis using mass spectrometry confirmed that they were big ET-1 (22-38) and mature ET-1(1-2 1), with an m/z value for (M+H)^+ of 1810 and 2493, respectively. These finding indicate that the soluble form of SEP can produce ET-1 by cleaving at the specific Trp^21-Val^22 site of big ET-1. On the other hand, it appears that ET-1 is further digested by the soluble form of SEP. […] These two major peaks (FIG. 7D, peaks 1 and 2) from mature ET-1 were co-eluted with the peaks (FIG. […], peaks 2 and 3, respectively) produced from big ET-1 hydrolysis. Using molecular masses, one peptide product (FIG. 7; C, peak 3, and D, peak 2) was identified as ET-1 (1-16). Another peptide product (FIG. 7; C, peak 2, and D, peak 1) appeared to be the two-chain ET-1 (1-16), which is held together by two disulfide bonds between Cys^1 and Cys^15 and between Cys^3 and Cys^11, presumably produced by cleavage at one site between Ser^4 and Glu^10 of ET-1 (1-16).
Finally, the present inventors examined the SEP-catalyzed hydrolysis of other bioactive peptides that have been characterized as substrates of ECE-1 and/or NEP. […]

ECE-1 and ECE-2 = conditions: ECE-1 vs ECE-2; cited from earlier work
[3] = target: atrial natriuretic peptide
substance P, P20366 = target: T2, substance P, P20366
[4] = target: T3, synthetic human ET-1 (1-21), P05305
[5] = target: T4, synthetic human big ET-1 (1-38), P05305

Chain of angiotensin I, P01019 (P01019 whole entry, looked up): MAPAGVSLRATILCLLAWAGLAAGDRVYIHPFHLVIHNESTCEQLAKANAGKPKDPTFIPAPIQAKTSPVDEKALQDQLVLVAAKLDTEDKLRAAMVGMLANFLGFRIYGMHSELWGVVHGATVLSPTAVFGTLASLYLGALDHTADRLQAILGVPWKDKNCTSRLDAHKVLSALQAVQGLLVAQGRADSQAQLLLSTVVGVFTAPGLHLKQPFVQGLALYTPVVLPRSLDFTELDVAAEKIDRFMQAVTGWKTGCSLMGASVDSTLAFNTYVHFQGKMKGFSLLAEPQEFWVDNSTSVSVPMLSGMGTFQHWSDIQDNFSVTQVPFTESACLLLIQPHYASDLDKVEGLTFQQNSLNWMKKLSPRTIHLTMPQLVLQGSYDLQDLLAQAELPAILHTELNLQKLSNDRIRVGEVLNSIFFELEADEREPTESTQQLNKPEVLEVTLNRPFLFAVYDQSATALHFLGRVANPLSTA
Chain of bradykinin, P01042 (P01042 whole entry, looked up): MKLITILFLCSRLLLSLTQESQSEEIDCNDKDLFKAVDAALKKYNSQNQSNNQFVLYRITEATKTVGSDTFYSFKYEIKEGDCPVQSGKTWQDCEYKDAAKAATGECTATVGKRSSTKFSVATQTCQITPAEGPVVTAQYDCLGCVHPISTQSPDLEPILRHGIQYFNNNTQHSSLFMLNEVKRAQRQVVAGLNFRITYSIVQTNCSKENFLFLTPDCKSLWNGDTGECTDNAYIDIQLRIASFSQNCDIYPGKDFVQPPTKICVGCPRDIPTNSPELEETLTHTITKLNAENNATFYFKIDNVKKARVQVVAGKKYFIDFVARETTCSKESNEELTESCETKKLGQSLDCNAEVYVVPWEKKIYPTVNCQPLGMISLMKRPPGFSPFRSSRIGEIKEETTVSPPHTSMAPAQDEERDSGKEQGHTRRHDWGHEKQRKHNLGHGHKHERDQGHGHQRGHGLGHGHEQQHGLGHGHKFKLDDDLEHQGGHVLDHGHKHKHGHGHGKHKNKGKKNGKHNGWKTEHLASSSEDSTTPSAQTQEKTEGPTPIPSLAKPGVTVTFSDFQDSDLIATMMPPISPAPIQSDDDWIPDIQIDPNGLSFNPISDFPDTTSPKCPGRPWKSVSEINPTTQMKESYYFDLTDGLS

Molecule	SEP activity (soluble form of SEP [1]) [%]	inhibition of SEP activity (in words) (soluble form of SEP [1])	Hydrolysis (%) (soluble form of SEP [2])	further results
C[C@H](CS)C(=O)N1CCC[C@H]1C(=O)O [Captopril, captopril]	103	not inhibited		
COc1c2c(c(O)c3c1C(O)Cc1cc(CC(C)O)c(C(=O)O)c(O)c1-3)C(=O)c1cccc(O)c1C2=O (stereo not shown) [FR901533]	38	not completely; also recorded: only partially inhibited		
RPPGFSPFR [Bradykinin]			>95	
CC(C)C[C@H](NP(=O)(O)O[C@@H]1O[C@@H](C)[C@H](O)[C@@H](O)[C@H]1O)C(=O)N[C@@H](Cc1c[nH]c2ccccc12)C(=O)O [Phosphoramidon]	8	inhibited		IC50 (soluble form of SEP [1]): ~0.006 µM; sensitivity of ECE-1 to phosphoramidon lower than that of ECE-2 (ECE-1 and ECE-2): 250 fold
c1cnc2c(c1)ccc1cccnc12 [1,10-Phenanthroline, 1,10-phenanthroline]	1	inhibited		
Angiotensin I: bioactive peptide substrate from American Peptides (DRVYIHPFHL)			>95	
O=C(O)CNC(=O)C(CS)Cc1ccccc1 (stereo not shown) [Thiorphan]	2	efficiently inhibited		IC50 (soluble form of SEP [1]): ~2 µM
Substance P: bioactive peptide substrate from American Peptides			>95	
CC[C@H](C)[C@@H]1NC(=O)[C@H](CCCNC(=N)N)NC(=O)[C@H](CC(=O)O)NC(=O)[C@H](CCSC)NC(=O)[C@H](CCCNC(=N)N)NC(=O)CNC(=O)CNC(=O)[C@H](Cc2ccccc2)NC(=O)[C@@H](NC(=O)[C@H](CO)NC(=O)[C@H](CO)NC(=O)[C@H](CCCNC(=N)N)NC(=O)[C@H](CCCNC(=N)N)NC(=O)[C@H](CC(C)C)NC(=O)[C@@H](N)CO)CSSC[C@@H](C(=O)N[C@@H](CC(N)=O)C(=O)N[C@@H](CO)C(=O)N[C@@H](Cc2ccccc2)C(=O)N[C@@H](CCCNC(=N)N)C(=O)N[C@@H](Cc2ccc(O)cc2)C(=O)O)NC(=O)CNC(=O)[C@H](CC(C)C)NC(=O)CNC(=O)[C@H](CO)NC(=O)[C@H](CCC(N)=O)NC(=O)[C@H](C)NC(=O)CNC1=O [Atrial Natriuretic peptide]			>95	
Big endothelin-1: synthetic human big ET-1, inactive ET precursor (CSCSSLMDKECVYFCHLDIIWVNTPEHVVPYGLGSPRS; ends and bridges not checked; cysteine pairing not given here; UniProt P05305 53-90, looked up)			42	
Endothelin-1: human ET-1, mature endothelin peptide			92	
soluble form of SEP (soluble secreted endopeptidase), partially purified from the conditioned medium of CHO/SEP cells (protein) RALRDSSLKSDICTTPSCVIAAARILENMDQSRNPCENFYQYACGGWLRHHVIPETNSRYSVFDILRDELEVILKGVLEDSTSQHRPAVEKAKTLYRSCMNQSVIEKRDSEPLLSVLKMVGGWPVALDKWNETMGLKWELERQLAVLNSQFNRRVLIDLFIWNDDQNSSRHVIYIDQPTLGMPSREYYFQEDNNHKVRKAYPEFMTSVATMLRKDQNLSKESAMVREEMAEVLELETHLANATVPQEKRHDVTALYHRMDLMELQERFGLKGFNWTLFIQNVLSSVEVELFPDEEVVVYGIPYLENLEDIIDSYSARTMQNYLVWRLVLDRIGSLSQRFKEARVDYRKALYGTTVEEVRWRECVSYVNSNMESAVGSLYIKRAFSKDSKSTVRELIEKIRSVFVDNLDELNWMDEESKKKAQEKAMNIREQIGYPDYILEDNNKHLDEEYSSLTFYEDLYFENGLQNLKNNAQRSLKKLREKVDQNLWIIGAAVVNAFYSPNRNQIVFPAGILQPPFFSKDQPQSLNFGGIGMVIGHEITHGFDDNGRNFDKNGNMLDWWSNFSARHFQQQSQCMIYQYGNFSWELADNQNVNGFSSLGENIADNGGVRQAYKAYLRWLADGGKDQRLPGLNLTYAQLFFINYAQVWCGSYRPEFAVQSIKTDVHSPLKYRVLGSLQNLPGFSEAFHCPRGSPMHPMKRCRIW				Hydrolysis (%) (angiotensin I, P01019): > 95%; Hydrolysis (%) [3]: > 95%; Hydrolysis (%) (bradykinin, P01042): > 95%; Hydrolysis (%) (substance P, P20366): > 95%; Hydrolysis (%) [4]: 92%; Hydrolysis (%) [5]: 42%
